A word on the IC50: it is the concentration that gives 50% inhibition.

Type in all cases: cell-based, human
For one data set, the system named is HaCaT cells. The experiment in a line: Cytotoxicity (resazurin cell viability) in HaCaT cells. Particulars: Homo sapiens, HaCaT cells, 1.25-320 µM. The text has this:
(§1) The MET1 SCC cell line (human squamous cell carcinoma) was obtained from Ximbio (London, UK), HaCaT (immortalized human keratinocytes cell line) was obtained from Addexbio (San Diego, CA, USA) and WM983b (human metastatic melanoma cell line) was obtained from Rockland (Pottstown, PA, USA). Cells were maintained in Dulbecco’s Modified Eagle Medium (DMEM) supplemented with 10% (v/v) fetal bovine serum (FBS) for MET1 and HaCaT and 5% (v/v) for WM983b cells, and Pen–Strep (penicillin 100 U/mL and streptomycin 100 µg/mL). Cells were cultivated in an incubator (Sanyo MCO-19AIC-UV) at 37 °C in a 5% CO2 humidified atmosphere.
(§2) First, 96-well plates were seeded with HaCaT and MET1 cells at a density of 20,000 cells/cm² and incubated for 24 h. After that period, the culture medium was replaced by culture medium containing different compounds: MB, AO, GV, QT, CUR, EGCG, PHE, NEO and BIPY. The compounds were diluted in culture medium using a range of concentrations of each compound from 1.25 µM to 320 µM (in quadruplicate). The medium was aspirated from the 96-well plate and replaced by the samples diluted in medium. Cells cultured with complete medium and cells cultured with medium supplemented with 0.2% (v/v) or 10% (v/v) of DMSO were used as negative (NC), solvent (SC) and positive controls (PC), respectively. The plates were incubated for 24 and 48 h, followed by evaluation of cell viability using a colorimetric assay. Cells containing samples were washed with PBS supplemented with calcium and magnesium; then, resazurin solution diluted in DMEM at 0.02 mg/mL was added. The medium containing resazurin was also dispensed in wells without cells, which were used as references. After 3 h of incubation, the absorbance was measured in a microplate reader (ELX800UV, Biotek Instruments) at wavelengths of 570 nm and 600 nm. The corrected absorbance was proportional to cell viability. Propagation of uncertainties was used to calculate the combined standard uncertainty. For the cytotoxicity study using WM983b cells, plates were seeded at a density of 40,000 cells/cm², and cells were treated only with MB and AO.
On the technique in general: Alamar Blue is a resazurin reagent that responds to reducing activity.

Data set [1] in a line: Phototoxicity assay in MET1 cells (irradiation 2.5 J/cm², resazurin). Particulars: human, MET1 squamous cell carcinoma cells, MET1 cells, dark. The protocol: (§3) The […] SCC cell line (human squamous cell carcinoma) was obtained from Ximbio (London, UK), HaCaT (immortalized human keratinocytes cell line) was obtained from Addexbio (San Diego, CA, USA) and WM983b (human metastatic melanoma cell line) was obtained from Rockland (Pottstown, PA, USA). […] Cells were cultivated in an incubator (Sanyo MCO-19AIC-UV) at 37 °C in a 5% CO2 humidified atmosphere. […] The plates were incubated for 24 h, followed by washing with PBS supplemented with calcium and magnesium. Afterwards, complete culture medium without phenol red was added, and the plates were irradiated from above and submitted to a dose of 2.5 J/cm2 of irradiation emitted by different wavelength light sources coupled with a homemade irradiation system created in our laboratory. […] This experiment was performed in an incubator that was able to keep plates in a dark environment; therefore, the dark control plates were protected from any light source, as well as the others, with the exception of the irradiation that each one was submitted to. Plates were incubated for another 24 h, and finally, the resazurin assay was performed as previously described in Section 3.3. For the phototoxicity study using WM983b cells, plates were prepared at a cell density of 40,000 cells/cm2, and cells were treated with MB and AO only.

Data set [2] has as its system MET1 cells. The experiment in a line: Cytotoxicity (resazurin cell viability) in MET1 cells. The settings on record: Homo sapiens, MET-1, MET1 cells, 1.25-320 µM.
From the text: as §1, §2

Data set [3] concerns MET1 cells. The experiment in a line: Phototoxicity assay in MET1 cells (irradiation 2.5 J/cm², resazurin). The settings on record: Homo sapiens, MET-1, light or radiation study, MET1 cells, treated 24 h. The procedure:
as §3

Where [4] appears, read: 24 h exposure, read-out: IC50 HaCaT Cells 24 h.
Where [5] appears, read: 48 h exposure, read-out: IC50 HaCaT Cells 48 h.
Setting [6] is: 24 h exposure, read-out: IC50 MET1 Cells 24 h.
Where [7] appears, read: 48 h exposure, read-out: IC50 MET1 Cells 48 h.

Each structure is given as a SMILES string. Read-outs that look alike come from different tables or passages of the source.

`Cc1ccc2ccc3ccc(C)nc3c2n1` [Neocuproine, neocuproine]: the concentration for half-maximal inhibition (IC50) in the data set on HaCaT cells (setting [4]) was more than 320 µM; in the data set on HaCaT cells (setting [5]), 159 µM; with MET1 cells [2] (setting [6]), more than 320 µM; with MET1 cells [2] (setting [7]), more than 320 µM. The viability at 24 h in data set [1] (1.25-40 µM, read-out: cell viability under dark conditions) is less than 70%.

Consider `CN(C)c1ccc(C(=C2C=CC(=[N+](C)C)C=C2)c2ccc(N(C)C)cc2)cc1` [Gentian violet, gentian violet], for which the IC50 with HaCaT cells (setting [4]) was found to be 2.8 µM; in the data set with HaCaT cells (setting [5]), 0.9 µM; with MET1 cells [3] (254 nm light, 2.5 J/cm², read-out: IC50 254 nm), 1.5 µM; with MET1 cells [3] (457 nm light, 2.5 J/cm², read-out: IC50 457 nm), 2.7 µM; in the data set on MET1 cells [3] (583 nm light, 2.5 J/cm², read-out: IC50 583 nm) it was 1 µM; in the data set on MET1 cells [3] (640 nm light, 2.5 J/cm², read-out: IC50 640 nm) it was 1.8 µM. Moreover, the IC50 with MET1 cells [3] (dark control (no irradiation), read-out: IC50 Dark) came out at 2.9 µM; in the data set with MET1 cells [2] (setting [6]), 3.9 µM; with MET1 cells [2] (setting [7]), 1.2 µM. Also, the viability at 24 h, 1.25 µM in data set [1] (1.25 µM, read-out: relative cell viability, dark condition, lowest concentration) is less than 60%.

These data come from publication PMC10054552, “Phototoxic Potential of Different DNA Intercalators for Skin Cancer Therapy: In Vitro Screening” (International Journal of Molecular Sciences, 2023).
